In ChEMBL document CHEMBL1156336, “Synthesis, X-ray crystal structure study and antitumoral evaluations of 5,6-disubstituted pyrimidine derivatives” (Bioorg Med Chem, 2010):

Columns and labels:
MOLT-4 = experiment: Antitumor activity against human MOLT4 cells after 72 hrs by MTT assay; settings: MOLT-4, 72 h
HCT-116 = experiment: Antitumor activity against human HCT116 cells after 72 hrs by MTT assay; settings: HCT-116, 72 h
NCI-H460 = experiment: Antitumor activity against human H460 cells after 72 hrs by MTT assay; settings: NCI-H460, 72 h
MCF7 = experiment: Antitumor activity against human MCF7 cells after 72 hrs by MTT assay; settings: MCF7, 72 h
SW-620 [1] = experiment: Antitumor activity against human SW620 cells after 72 hrs by MTT assay; settings: SW-620, 72 h
SW-620 [2] = experiment: Selectivity ratio IC50 of 5-fluorouracil to compound for human SW620 cells; type: functional

Compound | IC50 (MOLT-4) | IC50 (HCT-116) | IC50 (NCI-H460) | IC50 (MCF7) | IC50 (SW-620 [1]) | Ratio IC50 (SW-620 [2])
Cc1[nH]c(=O)[nH]c(=O)c1CCO | > 100 µM | > 100 µM | > 100 µM | > 100 µM | > 100 µM | 
CC(=O)OCCc1c(C)nc(Cl)nc1Cl | > 100 µM | > 100 µM | > 100 µM | > 100 µM | > 100 µM | 
COc1nc(C)c(CCO)c(OC)n1 | > 100 µM | > 100 µM | > 100 µM | > 100 µM | > 100 µM | 
CC(=O)OCCc1c(C)[nH]c(=O)[nH]c1=O | > 100 µM | > 100 µM | > 100 µM | > 100 µM | > 100 µM | 
COc1nc(C)c2c(n1)OCC2 |  | > 100 µM | > 100 µM | > 100 µM | > 100 µM | 
COc1nc(C)c(CCOC(C)=O)c(OC)n1 |  | 40 µM | 47 µM | 65 µM | 44 µM | 
COc1nc(Cl)nc(C)c1CCOC(C)=O | > 100 µM | > 100 µM | > 100 µM | > 100 µM | > 100 µM | 
COc1nc(Cl)nc(C)c1CCO |  | > 100 µM | > 100 µM | > 100 µM | > 100 µM | 
COc1ccc(C(OCCc2c(C)nc(OC)nc2OC)(c2ccccc2)c2ccccc2)cc1 | 5 µM | 4 µM | 50 µM | 6 µM | 20 µM | 
COc1nc(C)c(CCF)c(OC)n1 |  | > 100 µM | > 100 µM | > 100 µM | > 100 µM | 
COc1nc(Cl)nc(C)c1CCF |  | > 100 µM | > 100 µM | > 100 µM | > 100 µM | 
Cc1nc(Cl)nc(Cl)c1CCCl | 5 µM | 2 µM | 3 µM | 8 µM | 0.4 µM | 20
COc1nc(C)c(CCCl)c(OC)n1 | > 100 µM | > 100 µM | > 100 µM | > 100 µM | > 100 µM | 
COc1nc(CC(O)COCc2ccccc2)c(CCCl)c(OC)n1 (configuration not stated) | 19 µM | 16 µM | 76 µM | 26 µM | 20 µM | 
O=c1[nH]c(CC(O)COCc2ccccc2)c(CCCl)c(=O)[nH]1 (configuration not stated) | > 100 µM | > 100 µM | > 100 µM | > 100 µM | > 100 µM | 
Cc1[nH]c(=O)[nH]c(=O)c1CCCl | > 100 µM | > 100 µM | > 100 µM | > 100 µM | > 100 µM | 
Nc1ccn([C@@H]2O[C@H](CO)[C@@H](O)[C@@H]2O)c(=O)n1 [CYTARABINE] | 1 µM | 0.1 µM | 0.1 µM | ≥ 100 µM | 30 µM | 
O=c1[nH]cc(F)c(=O)[nH]1 [FLUOROURACIL] | 0.03 µM |  |  |  |  | 
